Measurements: paper PMC8533403, “Nostocyclopeptides as New Inhibitors of 20S Proteasome” (Biomolecules, 2021)
Where a SMILES comes first, the peptide text is derived from it. [ ]: non-standard residue; d: D form. The star is where a group is joined. ξ: configuration not given here. ξPro(4ξ-Me) = CC1CNC(C(=O)O)C1; Cbz = O=C(OCc1ccccc1)*

Columns and labels:
[1] = tested on: 20S proteasome T-L activity; details: cited from earlier work
Source text: (§1) The 26S proteasome is a large (2.4 MDa), multifunctional and ATP-dependent enzymatic complex with chymotrypsin-like (CT-L), trypsin-like (T-L), and caspase-like (C-L) activities. In eukaryotic organisms, it recognizes and degrades proteins with covalently attached ubiquitin (8.5 kDa protein). The 26S proteasome is composed of a 20S barrel-shaped core particle (700 kDa) responsible for proteolytic activity and one or two 19S (890 kDa) regulatory subunits with ubiquitin-binding sites. The 20S proteasome also occurs as a free complex that degrades protein ...

proteasome = tested on: proteasome; design: method as in PMID 18801655; details: read-out: IC50, proteasome inhibition; cited from earlier work
Experimental: In the current work, to unequivocally state which of the cyanobacterial metabolites are responsible for this activity, the six isolated Ncps were assayed.

[2] = target: T1, human 20S proteasome (h20S), chymotrypsin-like (CT-L) activity (Homo sapiens, UniProt P28074); test: Human 20S inhibition assay, chymotrypsin-like activity (Suc-LLVY-AMC); assay type: biochemical; details: Suc-LLVY-AMC 100 µM, pH 8.0, 37 °C
T1 construct: Human 20S proteasome (h20S) isolated from erythrocytes was used; from tissue; host or cells: human erythrocytes
Experimental: (§2) The 20S proteasome inhibition assay was performed following the procedure of Czerwonka et al.. Human 20S proteasome (h20S) isolated from erythrocytes was used. Latent h20S was activated with 0.01% SDS (sodium dodecyl sulfate). The final concentration of the proteasome was 1 µg mL^−1 (1.4 nM). The fluorogenic substrates, Suc-LLVY-AMC, Boc-LRR-AMC, and Z-LLE-AMC, were used as probes in the chymotrypsin-like, trypsin, and caspase-like activity assays, respectively, at a final concentration of 100 µM. Stock solutions of Ncps (10 mM) were prepared in dimethyl sulfoxide (DMSO) and were tested in the concentration range of 5 to 50 μM. The content of DMSO never exceeded 3% of the final reaction volume. The assays were performed in a 96-well plate in 50 mM TrisHCl, pH 8.0, at 37 °C. The percentage of the substrate hydrolysis was measured by the amount of the released AMC (aminomethyl coumarin) using Tecan Infinite M200 Pro (λ = 380–460 nm) spectrofluorimeter (Tecan Trading AG, Männedorf, Switzerland). The fluorescence measurements were performed at 2-min intervals for 60 min. The activity of h20S in the presence of isolated Ncps was calculated in relation to the control (DMSO). The known proteasome inhibitor PR11 [28] was used to ensure the correctness of the assay. The peptide at the final concentration of 0.2 µM decreases the relative CT-L activity of the h20S to 6% of the control.

[3] = target: T2, human 20S proteasome (h20S), trypsin-like (T-L) activity (Homo sapiens, UniProt Q99436); test: Human 20S inhibition assay, trypsin-like activity (Boc-LRR-AMC); assay type: biochemical; details: tested 5 to 50 µM; Boc-LRR-AMC 100 µM; pH 8.0, 37 °C; no replications; Figure 2B
T2 construct: Human 20S proteasome (h20S) isolated from erythrocytes was used; from tissue; host or cells: human erythrocytes
Experimental: as §2

[4] = target: T3, human 20S proteasome (h20S), caspase-like (C-L) activity (Homo sapiens, UniProt P28072); test: Human 20S inhibition assay, caspase-like activity (Z-LLE-AMC); assay type: biochemical; details: tested 5 to 50 µM; Z-LLE-AMC 100 µM; pH 8.0, 37 °C; no replications; Figure 2C
T3 construct: Human 20S proteasome (h20S) isolated from erythrocytes was used; from tissue; host or cells: human erythrocytes
Experimental: as §2

proteasome CT-L activity [5] = details: cited from earlier work
Experimental: (§3) Nostodione A from Scytonema hofmannii, which inhibits CT-L activity (IC50 50 μM), contains indole moiety fused with diketone system.

[6] = tested on: Saccharomyces cerevisiae 20S proteasome CT-L activity; details: cited from earlier work
Experimental: as §3

[7] = tested on: 20S proteasome CT-L activity; details: cited from earlier work
Source text: as §1

[8] = tested on: 20S proteasome C-L activity; details: cited from earlier work
Source text: as §1

proteasome CT-L activity [9] = details: cited from earlier work; remark: listed apart in the source
Source text: as §1

20S complex (proteasome) = details: read-out: IC50, catalytic activity of proteasome; cited from earlier work
Experimental: as §3

CC(=O)N[C@@H](CC(C)C)C(=O)N[C@@H](CC(C)C)C(=O)N[C@H](C=O)CCCNC(=N)N [Leupeptin]
effect on T-L activity of the 20S proteasome [1]: inhibits T-L activity

CC(C)C[C@@H](C=O)NC(=O)[C@H](CC(C)C)NC(=O)[C@H](CC(C)C)NC(=O)OCc1ccccc1 [MG-132] (Cbz-Leu-Leu-Leu-aldehyde)
IC50 (proteasome): 110 nM

CCC(C)C(NC(=O)C(CCC(N)=O)NC(=O)CNC(=O)C(N)Cc1ccc(O)cc1)C(=O)NC(CO)C(=O)N1CC(C)CC1C(=O)NC(C=O)Cc1ccccc1 (stereo not drawn) [Ncp-A2-L, Tyr-Gly-Gln-Ile-Ser-MePro-Phe-H] (H-YGQIS[ξPro(4ξ-Me)]F-aldehyde; configuration not given here)
IC50 ([2]; h20S 1.4 nM, approximate (ca.)): ~50000 nM

CC[C@H](C)[C@H](NC(=O)[C@@H](CCC(N)=O)NC(=O)CNC(=O)[C@@H](N)Cc1ccc(O)cc1)C(=O)N[C@@H](CO)C(=O)N1CCC[C@H]1C(=O)N[C@H](C=O)CC(C)C [Ncp-E2-L] (H-YG[dQ]ISPL-aldehyde; N-terminus assumed)
effect on T-L activity of the human 20S proteasome [3]: did not modify
effect on CT-L activity of the human 20S proteasome at 50 µM ([2]; applied at 50 µM, triplicate, Figure 2A): inhibited
effect on C-L activity of the human 20S proteasome [4]: did not modify

O=C1C(=O)c2c([nH]c3ccccc23)/C1=C\c1ccc(O)cc1 [Nostodione A]
IC50 (proteasome CT-L activity [5]): 50000 nM

CCCCCC(=O)N[C@H](C(=O)N[C@@H](CC[S+](C)[O-])C(=O)N[C@@H](CC(C)C)C(=O)[C@@]1(C)CO1)C(C)C (some centres unmarked) [carmaphycin A]
inhibition of CT-L activity of the Saccharomyces cerevisiae 20S proteasome [6]: low nanomolar concentrations

CCCCCC(=O)N[C@H](C(=O)N[C@@H](CCS(C)(=O)=O)C(=O)N[C@@H](CC(C)C)C(=O)[C@@]1(C)CO1)C(C)C [carmaphycin B]
inhibition of CT-L activity of the Saccharomyces cerevisiae 20S proteasome [6]: low nanomolar concentrations

CCCCCCCCC[C@@H](O)CC(=O)N[C@@H](CC(N)=O)C(=O)N[C@@H](CCC(N)=O)C(=O)N[C@H](C=O)CC(C)C [fellutamide B]
IC50 [7]: 9.4 nM
IC50 [8]: 1200 nM
IC50 [1]: 2000 nM

Tyropeptin A
effect on CT-L activity (proteasome CT-L activity [9]): inhibits mainly CT-L activity

scytonemide A
IC50 (20S complex (proteasome)): 96 nM
